Read-outs that look alike come from different tables or passages of the source. One block for each compound: values may come before it.
Assays:
[1] = tested on: NRK cells; test: Normal rat kidney (NRK) cell growth; type: cell-based
Method: (§1) Active Src inhibitors can be studied in a set of side-by-side cell-based assays using normal rat kidney (NRK) cells and a temperature-sensitive pp60^v-Src transformant of this cell line (LA25). The LA25 transformant engages in anchorage- and serum-independent growth at the “permissive” temperature of 33° C. due to activation of pp60^v-src but not at the “non-permissive” temperature of 40° C. at which pp60^v-src is not activated (Li et al., 1996). The use of this pair of closely related cell lines for testing the Src inhibitors at both the permissive and non-permissive temperatures allows one to determine if a given Src inhibitor is blocking cell growth due to specific blockade of the Src signaling pathway, by a different mechanism or by a general cytotoxic effect.
(§2) As shown in this graph the growth of the LA25 cells at the permissive temperature of 33° C. is inhibited by ca. 50% at a 25 μM concentration of 43-meta relative to the LA25 cell growth at the non-permissive 40° C. as a control. […] Since the 43-meta solutions were prepared with a low concentration of DMSO for solubilization, a DMSO control was also run at the same concentration.

[2] = target: T1, pp60^c-src (Homo sapiens, UniProt P12931); test: Cellular Mimetic Src assay (RR-SRC phosphorylation)
Target sequence in this assay (P12931 whole entry): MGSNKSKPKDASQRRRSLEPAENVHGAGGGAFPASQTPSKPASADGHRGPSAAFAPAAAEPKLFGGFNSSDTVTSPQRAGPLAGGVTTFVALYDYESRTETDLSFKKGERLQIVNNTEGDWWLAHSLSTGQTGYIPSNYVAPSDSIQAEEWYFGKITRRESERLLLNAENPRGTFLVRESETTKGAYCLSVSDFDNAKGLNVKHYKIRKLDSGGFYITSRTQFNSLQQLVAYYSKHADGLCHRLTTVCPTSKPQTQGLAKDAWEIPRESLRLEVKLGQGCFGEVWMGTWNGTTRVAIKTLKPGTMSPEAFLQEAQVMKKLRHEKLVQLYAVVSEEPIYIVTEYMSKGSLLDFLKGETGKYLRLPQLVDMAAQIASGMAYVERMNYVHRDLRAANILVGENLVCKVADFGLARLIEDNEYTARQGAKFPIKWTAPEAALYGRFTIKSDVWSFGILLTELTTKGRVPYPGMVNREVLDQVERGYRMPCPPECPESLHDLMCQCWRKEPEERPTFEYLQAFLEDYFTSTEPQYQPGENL

[3] = tested on: LA25 cells; test: LA25 (ts pp60^v-src transformed NRK) cell growth; type: cell-based, rat
Method: as §1, §2

[4] = tested on: PC-3; test: NIH 60-tumor cell panel, PC-3; type: cell-based; conditions: Homo sapiens, NIH prostate cancer cell line, read-out: growth inhibition IC50, PC-3
Description: The initial non-peptide Src inhibitors have also shown very encouraging results in four different series of cell culture assays. 1) In the NIH 60-tumor cell panel assay, broad activity (as one would expect for a Src inhibitor) was seen against the tumor cell lines, including the prostate lines. […] 3) The Src inhibitors were compared to the cancer drugs etoposide, taxol, doxorubicin and cisplatin in ovarian tumors from three different patients and an abdominal carcinoma from another patient. […] 5) Two of the Src inhibitors were also tested for inhibition of ts v-Src stimulated LA25 cell growth. […] 6) Two of the Src inhibitors were also tested for inhibition of normal rat kidney cell growth. The results are shown in FIG. 16D and illustrate that the inhibitors are cytoprotective for normal cells.

[5] = target: EGFRTK (Homo sapiens, UniProt P00533); test: EGFRTK inhibition; type: biochemical; conditions: % inhibition at 10 micromolar compound
Sequence of EGFRTK (P00533 25-1210): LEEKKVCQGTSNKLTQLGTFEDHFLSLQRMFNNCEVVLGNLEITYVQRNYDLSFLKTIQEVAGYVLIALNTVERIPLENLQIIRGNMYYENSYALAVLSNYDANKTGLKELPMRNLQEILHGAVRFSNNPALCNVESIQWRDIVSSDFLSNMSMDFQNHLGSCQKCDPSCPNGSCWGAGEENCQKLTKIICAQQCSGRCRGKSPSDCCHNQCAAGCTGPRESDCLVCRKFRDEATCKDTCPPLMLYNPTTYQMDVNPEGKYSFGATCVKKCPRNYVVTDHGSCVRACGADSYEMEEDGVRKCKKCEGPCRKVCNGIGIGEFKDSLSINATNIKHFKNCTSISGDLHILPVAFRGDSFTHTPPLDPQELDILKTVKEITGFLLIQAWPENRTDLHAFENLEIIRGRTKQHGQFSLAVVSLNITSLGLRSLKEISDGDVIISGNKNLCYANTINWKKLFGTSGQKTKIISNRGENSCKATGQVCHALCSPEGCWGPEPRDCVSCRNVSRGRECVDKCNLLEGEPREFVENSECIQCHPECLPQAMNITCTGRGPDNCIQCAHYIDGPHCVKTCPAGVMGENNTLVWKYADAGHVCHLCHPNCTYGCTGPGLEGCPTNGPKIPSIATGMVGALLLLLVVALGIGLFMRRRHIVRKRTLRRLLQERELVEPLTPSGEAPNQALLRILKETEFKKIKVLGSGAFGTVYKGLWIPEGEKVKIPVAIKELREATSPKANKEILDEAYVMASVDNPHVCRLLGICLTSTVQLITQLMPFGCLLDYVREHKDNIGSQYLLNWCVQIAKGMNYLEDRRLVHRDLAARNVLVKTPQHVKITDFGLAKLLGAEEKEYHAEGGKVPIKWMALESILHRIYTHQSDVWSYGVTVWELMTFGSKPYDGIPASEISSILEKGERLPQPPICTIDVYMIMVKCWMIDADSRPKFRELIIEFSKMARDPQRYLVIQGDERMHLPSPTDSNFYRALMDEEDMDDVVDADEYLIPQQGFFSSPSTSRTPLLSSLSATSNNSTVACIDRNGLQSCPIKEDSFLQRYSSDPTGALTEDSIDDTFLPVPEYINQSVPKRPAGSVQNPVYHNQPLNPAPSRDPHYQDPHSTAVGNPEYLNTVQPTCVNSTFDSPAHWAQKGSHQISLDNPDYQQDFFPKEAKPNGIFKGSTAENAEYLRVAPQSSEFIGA
Description: (§3) Blanks for a particular enzyme indicate that inhibition was not found.

[6] = target: T2, p56 lck (Homo sapiens, UniProt P06239); test: p56 lck inhibition; type: biochemical; conditions: % inhibition at 10 micromolar compound
T2 sequence (P06239 whole entry, species assumed): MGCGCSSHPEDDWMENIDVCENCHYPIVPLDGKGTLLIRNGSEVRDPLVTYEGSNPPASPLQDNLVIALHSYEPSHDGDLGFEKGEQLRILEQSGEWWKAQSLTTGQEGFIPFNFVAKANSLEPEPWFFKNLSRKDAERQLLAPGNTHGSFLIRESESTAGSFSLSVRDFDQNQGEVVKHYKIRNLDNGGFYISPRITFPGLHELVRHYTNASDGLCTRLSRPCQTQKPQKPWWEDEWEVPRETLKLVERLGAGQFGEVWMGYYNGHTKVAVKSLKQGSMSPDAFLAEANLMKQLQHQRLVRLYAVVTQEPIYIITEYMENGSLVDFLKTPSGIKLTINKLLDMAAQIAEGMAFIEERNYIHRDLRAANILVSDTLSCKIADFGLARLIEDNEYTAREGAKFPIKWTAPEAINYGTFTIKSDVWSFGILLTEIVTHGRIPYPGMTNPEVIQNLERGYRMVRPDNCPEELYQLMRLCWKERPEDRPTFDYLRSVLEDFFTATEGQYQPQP
Description: as §3

[7] = target: T1, pp60^c-src; conditions: literature value, cited from earlier work
Target sequence in this assay (P12931 whole entry, species assumed): as the sequence (P12931 whole entry) above

[8] = target: T3, PTP-1B (Homo sapiens, UniProt P18031); test: PTP-1B inhibition; type: biochemical; conditions: % inhibition at 10 micromolar compound
T3 sequence (P18031 1-435): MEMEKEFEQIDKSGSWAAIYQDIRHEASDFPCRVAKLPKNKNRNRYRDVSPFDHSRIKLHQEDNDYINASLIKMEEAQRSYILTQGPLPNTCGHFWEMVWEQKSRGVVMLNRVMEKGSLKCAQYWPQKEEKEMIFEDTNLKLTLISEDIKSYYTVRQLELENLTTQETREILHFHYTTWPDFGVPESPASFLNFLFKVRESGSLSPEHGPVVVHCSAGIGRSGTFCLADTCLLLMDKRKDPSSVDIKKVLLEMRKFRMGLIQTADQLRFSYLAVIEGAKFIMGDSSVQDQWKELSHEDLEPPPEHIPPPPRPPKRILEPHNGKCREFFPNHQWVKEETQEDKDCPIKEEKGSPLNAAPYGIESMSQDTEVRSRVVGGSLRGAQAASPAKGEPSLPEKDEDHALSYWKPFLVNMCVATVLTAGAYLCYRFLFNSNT
Description: as §3

[9] = SCID, mouse, in vivo, ip
[10] = target: T2, p56 lck; conditions: analyzed with the tyrosine kinase p56^lck; cited from earlier work
[11] = read-out: % Inhibition of 2 mM RR-src at Inhibitor Concentration (100 μM)

SMILES: O=C(Nc1cccc(O)c1)c1cc2cccc(O)c2cc1O [Compound 45]
inhibition of normal rat kidney (parent non-transformed) cell growth [1]: without inhibiting the normal growth of the parent non-transformed cells
IC50 [2]: 170 µM
mode of inhibition with respect to ATP ([2]; increasing ATP concentration up to 1 mM): 45 NON-ATP
inhibition at 100 µM [2, 11]: 51%
inhibition of v-Src induced LA25 cell growth [3]: specifically blocked the v-Src induced cell growth
IC50 [4]: 15 µM

SMILES: O=C(NCc1ccc(CO)cc1)c1cc2cc(F)ccc2[nH]1 [Compound 1oooo]
EGFRTK @ 10 μm [5]: 33%
p56 LcK @ 10 μm [6]: 10%

SMILES: CCOc1cc(/C=C(\C#N)C(N)=O)cc(CSc2ccccc2)c1O [drawing 65, ST 638, reference compound]
inhibition at 100 µM [2, 11]: 37%
IC50 ([7]; Table V, read-out: Lit. IC50): 18 µM

SMILES: COc1ccc(NC(=O)c2cc3cc(F)ccc3[nH]2)cc1CO [Compound 1cccc]
EGFRTK @ 10 μm [5]: 19%
PTP-1B @ 10 μm [8]: 20%

SMILES: O=C(NCc1cccc(O)c1)c1cc2cc(F)ccc2[nH]1 [Compound 1a]
toxicity in mice (weight loss) [9]: less toxic in mice than compound 2k from Example 4

SMILES: O=C(Nc1cccc(O)c1)c1cc2ccc(O)cc2cc1O [Compound 43-meta]
inhibition of normal rat kidney (parent non-transformed) cell growth [1]: without inhibiting the normal growth of the parent non-transformed cells
cell toxicity (basal growth of NRK and LA25 cells) ([1]; concentration increased up to 400 μM): lack of cell toxicity
IC50 [2]: 18 µM
Ki ([2]; K1, Table V): 10 µM
inhibition at 100 µM [2, 11]: 89%
inhibition of v-Src induced LA25 cell growth [3]: specifically blocked the v-Src induced cell growth
inhibition at 25 µM ([3]; Rattus norvegicus, NRK, 25 μM, permissive 33° C. relative to non-permissive 40° C.): ~50%
IC50 ([3]; Rattus norvegicus, NRK, read-out: IC50 for blocking pp60^v-src stimulated cell proliferation): ~25 µM
IC50 [4]: 19 µM

SMILES: Cc1cc(O)c2c(c1)C(=O)c1cc(O)cc(O)c1C2=O [Emodin, reference compound]
inhibition at 100 µM ([2]; read-out: % Inhibition at 100 μM (std. dev.)): 22%
mode of inhibition with respect to ATP [10]: ATP-competitive

Now from value to compound, other results behind:

melting point: 239 to 241 °C
EGFRTK @ 10 μm [5]: 26%
SMILES: O=C(NCc1cccc(F)c1)c1cc2cc(F)ccc2[nH]1 [Compound 1z]

p56 LcK @ 10 μm [6]: 12%
SMILES: COc1cc(OC)c(CNC(=O)c2cc3cc(F)ccc3[nH]2)c(OC)c1 [Compound 1rr]

% Inhibition at 100 μM (std. dev.) ([2]; Table IX, hydroxynaphthalene derivatives and published inhibitors): 37 (+/−5) %
SMILES: CCOc1cc(/C=C(\C#N)C(N)=O)cc(CSc2ccccc2)c1O [ST-638, reference compound]
IC50 ([7]; Table IX, read-out: IC50 (μM), Lit): 18 µM

p56 LcK @ 10 μm [6]: 11%
SMILES: O=C(Nc1cc(O)cc(O)c1)c1cc2cc(F)ccc2[nH]1 [Compound 1r]

p56 LcK @ 10 μm [6]: 12%
SMILES: O=C(Nc1ccccc1O)c1cc2cc(F)ccc2[nH]1 [Compound 1n]

PTP-1B @ 10 μm [8]: 12%
SMILES: O=C(NCc1ccc(Cl)cc1)c1[nH]c2ccc(F)cc2c1-c1ccccc1 [Compound 2gg]
